Active and inactive are the calls of the source. The rule behind the calls is not given here.
Legend:
[1] = target: T1, von Hippel-Lindau disease tumor suppressor/SWI/SNF-related matrix-associated actin-dependent regulator of chromatin subfamily A member 2 (Homo sapiens, UniProt P51531+P40337); experiment: PROTAC activity at VHL/C-terminal HiBiT fused SMARCA2 in human HeLa cells assessed as induction of SMARCA2 degradation pre-treated with 2-(6-amino-5-(1-methyl-1H-pyrazol-4-yl)pyridazin-3-yl)phenol for 2 hrs followed by compound treatment for 24 hrs by Nano-Glo HiBiT analysis; type: cell-based
Target sequence in this assay (P40337 whole entry, looked up, the tested form may be a part): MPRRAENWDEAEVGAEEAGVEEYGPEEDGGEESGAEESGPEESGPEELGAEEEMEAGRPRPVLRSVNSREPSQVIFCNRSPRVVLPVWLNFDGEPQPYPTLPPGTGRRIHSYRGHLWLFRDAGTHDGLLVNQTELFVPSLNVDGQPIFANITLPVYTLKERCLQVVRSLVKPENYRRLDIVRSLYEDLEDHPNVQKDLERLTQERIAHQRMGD
Target sequence in this assay (P51531 whole entry, looked up, the tested form may be a part): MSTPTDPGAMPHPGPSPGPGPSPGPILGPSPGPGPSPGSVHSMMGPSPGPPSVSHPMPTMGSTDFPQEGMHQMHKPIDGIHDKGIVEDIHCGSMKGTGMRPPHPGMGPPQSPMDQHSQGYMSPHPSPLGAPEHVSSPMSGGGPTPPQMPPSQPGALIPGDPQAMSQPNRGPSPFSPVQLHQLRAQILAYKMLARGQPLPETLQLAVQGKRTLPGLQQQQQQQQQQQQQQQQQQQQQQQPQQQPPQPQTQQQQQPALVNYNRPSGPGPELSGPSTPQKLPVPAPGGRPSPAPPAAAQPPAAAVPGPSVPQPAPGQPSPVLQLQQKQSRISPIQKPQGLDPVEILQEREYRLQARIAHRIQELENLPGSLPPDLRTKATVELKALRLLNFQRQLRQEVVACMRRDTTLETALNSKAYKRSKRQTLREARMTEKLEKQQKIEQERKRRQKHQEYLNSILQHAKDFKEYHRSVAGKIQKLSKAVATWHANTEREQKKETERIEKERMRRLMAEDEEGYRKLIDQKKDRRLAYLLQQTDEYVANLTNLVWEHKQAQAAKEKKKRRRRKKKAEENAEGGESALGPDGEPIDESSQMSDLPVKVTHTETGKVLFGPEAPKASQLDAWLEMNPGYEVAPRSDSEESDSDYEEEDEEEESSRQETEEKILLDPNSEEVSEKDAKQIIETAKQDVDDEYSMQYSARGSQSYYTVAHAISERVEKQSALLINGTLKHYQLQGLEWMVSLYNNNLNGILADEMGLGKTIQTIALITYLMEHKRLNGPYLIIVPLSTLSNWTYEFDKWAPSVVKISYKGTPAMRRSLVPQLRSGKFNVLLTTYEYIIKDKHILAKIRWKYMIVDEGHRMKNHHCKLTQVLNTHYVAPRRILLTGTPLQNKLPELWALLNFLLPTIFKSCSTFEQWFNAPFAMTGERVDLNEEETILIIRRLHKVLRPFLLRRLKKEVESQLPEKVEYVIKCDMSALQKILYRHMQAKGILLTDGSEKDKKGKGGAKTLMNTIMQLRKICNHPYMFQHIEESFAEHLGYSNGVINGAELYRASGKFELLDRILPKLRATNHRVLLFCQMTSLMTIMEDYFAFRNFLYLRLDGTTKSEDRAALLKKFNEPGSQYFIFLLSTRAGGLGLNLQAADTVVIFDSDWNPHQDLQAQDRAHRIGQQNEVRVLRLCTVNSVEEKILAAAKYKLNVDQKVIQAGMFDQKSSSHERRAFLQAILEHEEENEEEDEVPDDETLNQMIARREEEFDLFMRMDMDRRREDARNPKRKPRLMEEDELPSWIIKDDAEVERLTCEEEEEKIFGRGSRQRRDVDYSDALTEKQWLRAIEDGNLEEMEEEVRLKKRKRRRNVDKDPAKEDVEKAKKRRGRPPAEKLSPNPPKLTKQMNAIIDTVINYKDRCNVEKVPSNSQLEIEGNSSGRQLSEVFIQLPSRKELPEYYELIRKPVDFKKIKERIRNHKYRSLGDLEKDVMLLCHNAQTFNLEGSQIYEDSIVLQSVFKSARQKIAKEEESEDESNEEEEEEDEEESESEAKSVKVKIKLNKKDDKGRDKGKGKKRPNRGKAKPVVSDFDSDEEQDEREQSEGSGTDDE

[2] = target: T1, von Hippel-Lindau disease tumor suppressor/SWI/SNF-related matrix-associated actin-dependent regulator of chromatin subfamily A member 2; experiment: PROTAC activity at VHL/C-terminal HiBiT fused SMARCA2 in human HeLa cells assessed as induction of SMARCA2 degradation incubated for 24 hrs by Nano-Glo HiBiT analysis; type: cell-based
Target sequence in this assay (P51531 whole entry, the tested form may be a part): as the sequence (P51531 whole entry, looked up, the tested form may be a part) above
Target sequence in this assay (P40337 whole entry, the tested form may be a part): as the sequence (P40337 whole entry, looked up, the tested form may be a part) above

[3] = target: T1, von Hippel-Lindau disease tumor suppressor/SWI/SNF-related matrix-associated actin-dependent regulator of chromatin subfamily A member 2; experiment: PROTAC activity at VHL/C-terminal HiBiT fused SMARCA2 in human HeLa cells assessed as induction of SMARCA2 degradation incubated for 3 hrs by Nano-Glo HiBiT analysis; type: cell-based
Target sequence in this assay (P51531 whole entry, the tested form may be a part): as the sequence (P51531 whole entry, looked up, the tested form may be a part) above
Target sequence in this assay (P40337 whole entry, the tested form may be a part): as the sequence (P40337 whole entry, looked up, the tested form may be a part) above

[4] = target: T1, von Hippel-Lindau disease tumor suppressor/SWI/SNF-related matrix-associated actin-dependent regulator of chromatin subfamily A member 2; experiment: PROTAC activity at VHL/C-terminal HiBiT fused SMARCA2 in human HeLa cells assessed as induction of SMARCA2 degradation at 0.0001 to 1 uM incubated for 3 hrs by Nano-Glo HiBiT analysis relative to control; type: cell-based; details: dose 0.0001-1 µM
Target sequence in this assay (P40337 whole entry, looked up, the tested form may be a part): as above
Target sequence in this assay (P51531 whole entry, looked up, the tested form may be a part): as the sequence (P51531 whole entry, looked up, the tested form may be a part) above

[5] = target: T1, von Hippel-Lindau disease tumor suppressor/SWI/SNF-related matrix-associated actin-dependent regulator of chromatin subfamily A member 2; experiment: PROTAC activity at VHL/C-terminal HiBiT fused SMARCA2 in human HeLa cells assessed as induction of SMARCA2 degradation by measuring maximal efficacy at 0.0001 to 1 uM incubated for 24 hrs by Nano-Glo HiBiT analysis relative to control; type: cell-based; details: dose 0.0001-1 µM
Target sequence in this assay (P40337 whole entry, looked up, the tested form may be a part): as the sequence (P40337 whole entry, looked up, the tested form may be a part) above
Target sequence in this assay (P51531 whole entry, looked up, the tested form may be a part): as the sequence (P51531 whole entry, looked up, the tested form may be a part) above

[6] = target: T2, von Hippel-Lindau disease tumor suppressor/SWI/SNF-related matrix-associated actin-dependent regulator of chromatin subfamily A member 4 (Homo sapiens, UniProt P51532+P40337); experiment: PROTAC activity at VHL/C-terminal HiBiT fused SMARCA4 in human HeLa cells assessed as induction of SMARCA4 degradation by measuring maximal efficacy at 0.001 to 10 uM incubated for 1 hr by Nano-Glo HiBiT analysis relative to control; type: cell-based; details: dose 0.001-10 µM
[7] = target: T2, von Hippel-Lindau disease tumor suppressor/SWI/SNF-related matrix-associated actin-dependent regulator of chromatin subfamily A member 4; experiment: PROTAC activity at VHL/C-terminal HiBiT fused SMARCA4 in human HeLa cells assessed as induction of SMARCA4 degradation incubated for 48 hrs by Nano-Glo HiBiT analysis; type: cell-based
[8] = target: T1, von Hippel-Lindau disease tumor suppressor/SWI/SNF-related matrix-associated actin-dependent regulator of chromatin subfamily A member 2; experiment: PROTAC activity at VHL/C-terminal HiBiT fused SMARCA2 in human HeLa cells assessed as induction of SMARCA2 degradation incubated for 1 to 48 hrs by Nano-Glo HiBiT analysis; type: cell-based; details: dose 0.001-10 µM, time 1-48 hrs
Target sequence in this assay (P40337 whole entry, looked up, the tested form may be a part): as the sequence (P40337 whole entry, looked up, the tested form may be a part) above
Target sequence in this assay (P51531 whole entry, looked up, the tested form may be a part): as the sequence (P51531 whole entry, looked up, the tested form may be a part) above

[9] = target: T1, von Hippel-Lindau disease tumor suppressor/SWI/SNF-related matrix-associated actin-dependent regulator of chromatin subfamily A member 2; experiment: PROTAC activity at VHL/C-terminal HiBiT fused SMARCA2 in human HeLa cells assessed as induction of SMARCA2 degradation at 0.001 to 10 uM by Nano-Glo HiBiT analysis; type: cell-based; details: dose 0.001-10 µM, time 1-48 hrs, TDE = time-dependent effect
Target sequence in this assay (P40337 whole entry, looked up, the tested form may be a part): as the sequence (P40337 whole entry, looked up, the tested form may be a part) above
Target sequence in this assay (P51531 whole entry, looked up, the tested form may be a part): as the sequence (P51531 whole entry, looked up, the tested form may be a part) above

[10] = target: T1, von Hippel-Lindau disease tumor suppressor/SWI/SNF-related matrix-associated actin-dependent regulator of chromatin subfamily A member 2; experiment: PROTAC activity at VHL/wild-type SMARCA2 in human SK-MEL-5 cells assessed as induction of SMARCA2 degradation incubated for 24 hrs by Western blotting analysis; type: cell-based
Target sequence in this assay (P51531 whole entry, the tested form may be a part): as the sequence (P51531 whole entry, looked up, the tested form may be a part) above
Target sequence in this assay (P40337 whole entry, the tested form may be a part): as the sequence (P40337 whole entry, looked up, the tested form may be a part) above

[11] = system: A549; experiment: Antiproliferative activity against SMARCA4-deficient human A549 cells assessed as cell growth inhibition measured after 7 days by WST-8 assay; type: functional; details: A549, 168 h, time 7 day
[12] = system: NCI-H1792; experiment: Antiproliferative activity against human NCI-H1792 cells expressing wild-type SMARCA2 assessed as cell growth inhibition by measuring maximal efficacy measured after 7 days by WST-8 assay relative to control; type: functional; details: time 7 day
[13] = system: NCI-H647; experiment: Antiproliferative activity against human NCI-H647 cells expressing wild-type SMARCA2 assessed as cell growth inhibition by measuring maximal efficacy measured after 7 days by WST-8 assay relative to control; type: functional; details: time 7 day
[14] = target: T1, von Hippel-Lindau disease tumor suppressor/SWI/SNF-related matrix-associated actin-dependent regulator of chromatin subfamily A member 2; experiment: In vivo PROTAC activity at VHL/SMARCA2 in SCID mouse xenografted with human NCI-H838 cells assessed as remaining activity in tumor at 50 mg/kg, iv administered as single dose measured after 3 hrs by Western blotting analysis (reference value: 100 +/- 7% ); type: functional, organism-based
Target sequence in this assay (P40337 whole entry, looked up, the tested form may be a part): as above
Target sequence in this assay (P51531 whole entry, looked up, the tested form may be a part): as the sequence (P51531 whole entry, looked up, the tested form may be a part) above

[15] = target: T1, von Hippel-Lindau disease tumor suppressor/SWI/SNF-related matrix-associated actin-dependent regulator of chromatin subfamily A member 2; experiment: In vivo PROTAC activity at VHL/SMARCA2 in SCID mouse xenografted with human NCI-H838 cells assessed as remaining activity in tumor at 50 mg/kg, iv administered as single dose measured after 48 hrs by Western blotting analysis (reference value: 100 +/- 7% ); type: functional, organism-based
[16] = target: T1, von Hippel-Lindau disease tumor suppressor/SWI/SNF-related matrix-associated actin-dependent regulator of chromatin subfamily A member 2; experiment: In vivo PROTAC activity at VHL/SMARCA2 in SCID mouse xenografted with human NCI-H838 cells assessed as remaining activity in tumor at 50 mg/kg, iv administered as single dose measured after 96 hrs by Western blotting analysis (reference value: 100 +/- 7% ); type: functional, organism-based
[17] = target: T1, von Hippel-Lindau disease tumor suppressor/SWI/SNF-related matrix-associated actin-dependent regulator of chromatin subfamily A member 2; experiment: In vivo PROTAC activity at VHL/SMARCA2 in SCID mouse xenografted with human MV4-11 cells assessed as reduction of SMARCA2 level in tumor at 50 mg/kg, iv administered as single dose measured after 72 hrs by Western blotting analysis; type: ADME, organism-based; design: scale not given: the % may be the effect or the level left
Target sequence in this assay (P51531 whole entry, the tested form may be a part): as the sequence (P51531 whole entry, looked up, the tested form may be a part) above
Target sequence in this assay (P40337 whole entry, the tested form may be a part): as the sequence (P40337 whole entry, looked up, the tested form may be a part) above

[18] = target: T1, von Hippel-Lindau disease tumor suppressor/SWI/SNF-related matrix-associated actin-dependent regulator of chromatin subfamily A member 2; experiment: In vivo PROTAC activity at VHL/SMARCA2 in SCID mouse xenografted with human MV4-11 cells assessed as reduction of SMARCA2 level in tumor at 50 mg/kg, iv administered as single dose measured after 96 hrs by Western blotting analysis; type: ADME, organism-based; design: scale not given: the % may be the effect or the level left
Target sequence in this assay (P51531 whole entry, the tested form may be a part): as the sequence (P51531 whole entry, looked up, the tested form may be a part) above
Target sequence in this assay (P40337 whole entry, the tested form may be a part): as the sequence (P40337 whole entry, looked up, the tested form may be a part) above

[19] = target: T1, von Hippel-Lindau disease tumor suppressor/SWI/SNF-related matrix-associated actin-dependent regulator of chromatin subfamily A member 2; experiment: In vivo PROTAC activity at VHL/SMARCA2 in SCID mouse xenografted with human MV4-11 cells assessed as remaining activity in tumor at 50 mg/kg, iv administered as single dose measured after 96 hrs by Western blotting analysis (reference value: 100 +/- 15 % ); type: ADME, organism-based
Target sequence in this assay (P51531 whole entry, the tested form may be a part): as the sequence (P51531 whole entry, looked up, the tested form may be a part) above
Target sequence in this assay (P40337 whole entry, the tested form may be a part): as the sequence (P40337 whole entry, looked up, the tested form may be a part) above

[20] = target: T2, von Hippel-Lindau disease tumor suppressor/SWI/SNF-related matrix-associated actin-dependent regulator of chromatin subfamily A member 4; experiment: In vivo PROTAC activity at VHL/SMARCA4 in SCID mouse xenografted with human MV4-11 cells assessed as remaining activity in tumor at 50 mg/kg, iv administered as single dose measured after 6 hrs by Western blotting analysis (reference value: 100 +/- 15 % ); type: ADME, organism-based
[21] = target: T2, von Hippel-Lindau disease tumor suppressor/SWI/SNF-related matrix-associated actin-dependent regulator of chromatin subfamily A member 4; experiment: In vivo PROTAC activity at VHL/SMARCA4 in SCID mouse xenografted with human MV4-11 cells assessed as remaining activity in tumor at 50 mg/kg, iv administered as single dose measured after 24 hrs by Western blotting analysis (reference value: 100 +/- 15 % ); type: ADME, organism-based
[22] = target: T2, von Hippel-Lindau disease tumor suppressor/SWI/SNF-related matrix-associated actin-dependent regulator of chromatin subfamily A member 4; experiment: In vivo PROTAC activity at VHL/SMARCA4 in SCID mouse xenografted with human MV4-11 cells assessed as remaining activity in tumor at 50 mg/kg, iv administered as single dose measured after 72 hrs by Western blotting analysis (reference value: 100 +/- 15 % ); type: ADME, organism-based
[23] = Drug concentration in SCID mouse plasma xenografted with human MV4-11 cells at 50 mg/kg, iv measured after 6 hrs by LC-MS/MS method; type: ADME, organism-based
[24] = system: SK-MEL-5; experiment: Antitumor activity against SMARCA4-deficient human SK-MEL-5 cells xenografted in SCID mouse assessed as tumor growth inhibition at 25 mg/kg, iv administered twice a week measured after 32 days relative to control; type: functional; details: SK-MEL-5, 768 h, time 32 day, read-out: TGI

- Activity [1]: inactive
- DC50 [2]: 10 nM
- DC50 [3]: 63 nM
- Emax [4]: 79%
- Emax [5]: 90%
- Emax [6]: 20%
- DC50 [7]: 174 nM
- Activity [8]: Dose-Dependent Effect
- Activity [9]: Tde
- DC50 [10]: 20 nM
- GI50 [11]: 42 nM
- Activity [14]: 30%
- Activity [15]: 25%
- Activity [16]: 33%
- Activity [17]: 56%
- Activity [18]: 74%
- Activity [19]: 26%
- Activity [20]: 83%
- Activity [21]: 71%
- Activity [22]: 91%
- concentration at 6 h [23]: 766 ng/mL
SMILES: Cc1ncsc1-c1ccc([C@H](C)NC(=O)[C@@H]2C[C@@H](O)CN2C(=O)[C@@H](NC(=O)[C@H]2CC[C@H](CN3CC4(CCC(n5cc(-c6cc(-c7ccccc7O)nnc6N)cn5)CC4)C3)CC2)C(C)(C)C)cc1
- Imax [12]: 25%
- Imax [13]: 74%
- inhibition in vivo at 25 mg/kg [24]: 54%

From ChEMBL document CHEMBL5325488, “Discovery of SMD-3040 as a Potent and Selective SMARCA2 PROTAC Degrader with Strong in vivo Antitumor Activity” (J Med Chem, 2023)
